Laboratory results taken from patent publication US4590191A, “Soporific containing lorazepam” (Medichemie AG, priority 1984, dated 1986).
Where two headings read alike, the source gives them in different places.

Tests used:
[1] = cited from earlier work
[2] = Acute oral toxicity (lethality) in mice; details: mouse, in vivo, po
From the text: (§1) and of the combined preparation of 25 parts by weight
Doses in mg/kg Body Weight

white mice = assay: Acute oral toxicity (lethality) in mice; details: oral, mice
From the text: as §1
Doses in mg/kg Body Weight

## O=C1Nc2ccc(Cl)cc2C(c2ccccc2Cl)=NC1O (stereo not shown) [lorazepam, 7-chlor-5-(2-chlorphenyl)-1,3-dihydro-3-hydroxy-2H-1,4 benzodiazepin-2-on]
[1]; 1 mg
  hypnotic or soporific effect (in words): often insufficient
[1]; 2 to 3 mg, in individual cases
  side effects (in words): subjectively unpleasant side effects can occur
[1]; in vivo
  half-life (in words): medium half-life
[1]; single dose of 1 mg
  ratio between effect and tolerance (in words): especially good ratio between effect and tolerance
[1]; somewhat higher doses, may occur in the next few days
  side effects (in words): relatively strong side effects, such as muscle relaxation, ataxia and sedative after-effects
[2]
  LD50: 3180 mg/kg

## CN(C)CCOC(c1ccccc1)c1ccccc1 [diphenhydramine, 2-(diphenyl-methoxy)-N,N-dimethyl ethanamine]
White mice
  DL 95: 645 mg/kg
